For this test, the target named is T1, Enhanced ProLabel (ePL)-Tagged CAMKK2 (Homo sapiens, UniProt Q96RR4).
T1 construct: expressed in transfected cells
T1 sequence (Q96RR4 whole entry): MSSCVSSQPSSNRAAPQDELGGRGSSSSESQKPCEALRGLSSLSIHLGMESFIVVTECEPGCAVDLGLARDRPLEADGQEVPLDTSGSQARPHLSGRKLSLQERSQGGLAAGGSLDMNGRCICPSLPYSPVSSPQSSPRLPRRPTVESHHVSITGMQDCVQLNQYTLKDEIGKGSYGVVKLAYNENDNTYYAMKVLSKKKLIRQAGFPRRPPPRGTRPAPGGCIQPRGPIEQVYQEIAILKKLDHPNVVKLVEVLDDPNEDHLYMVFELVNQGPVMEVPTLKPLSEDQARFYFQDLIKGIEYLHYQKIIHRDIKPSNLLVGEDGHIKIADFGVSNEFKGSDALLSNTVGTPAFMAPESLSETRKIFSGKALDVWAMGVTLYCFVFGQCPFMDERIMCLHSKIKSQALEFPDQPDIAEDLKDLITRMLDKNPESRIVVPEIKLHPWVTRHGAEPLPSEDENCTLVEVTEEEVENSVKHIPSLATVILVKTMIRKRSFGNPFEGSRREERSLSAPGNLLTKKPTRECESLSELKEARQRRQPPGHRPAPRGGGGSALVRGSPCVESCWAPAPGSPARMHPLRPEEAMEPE
Put plainly: Degradation of stably expressed ePL-tagged CAMKK2 in 293T cells (InCELL Hunter luminescence, 24 h). Format: cell-based. The note with it: minimum % protein remaining; ePL-CAMKK2 293T cells, 24 h incubation. The protocol:
Cells were dispensed into 384 well plates pre-spotted with serial diluted test compounds. After 24 h incubation, degradation was terminated by the addition of DiscoverX InCELL Hunter Detection reagent.
Assay plates were incubated at 37° C. with 5% CO2 for 24 hours. Plates were kept at room temperature for 30 min, after which 25 μL of the InCELL Hunter Detection Reagent Working Solution was added (catalog number 96-0002, DiscoverX, Fremont, CA). After plates were incubated at room temperature for 30 min, protected from light, luminescence was read on a PHERAstar reader (BMG LABTECH, Cary, N.C.). Data was normalized and fit using Activity Base (IDBS, Alameda, Calif.) as described below.
A Four Parameter Logistic Model (Sigmoidal Dose-Response Model, equation 1) was used to determine the compound's EC50 and degradation Ymin.
where C is CAMKK2 degradation potency EC50, D is the […], A is the lower limit reported as Ymin. Ymin and EC50 were used to characterize compound-mediated CAMKK2 degradation efficiency.
As to `Cc1ncsc1-c1ccc(CNC(=O)[C@@H]2C[C@@H](O)CN2C(=O)[C@@H](NC(=O)CCCCCCCCCCOc2ccc3c(-c4ccc(C(=O)O)c(C5CCCC5)c4)ncnc3c2)C(C)(C)C)cc1` (racemic) [Compound 2, 2-cyclopentyl-4-[7-[11-oxo-11-[[rac-(1S)-2,2-dimethyl-1-[rac-(2S,4R)-4-hydroxy-2-[[4-(4-methylthiazol-5-yl)phenyl]methylcarbamoyl]pyrrolidine-1-carbonyl]propyl]amino]undecoxy]quinazolin-4-yl]benzoic acid], the “(ePL) HEK293 24 h CAMKK2 Ymin(%)” value was determined as 37%.
The figure for `Cc1ncsc1-c1ccc(CNC(=O)[C@@H]2C[C@@H](O)CN2C(=O)[C@@H](NC(=O)CCCCCCOc2ccc3c(-c4ccc(C(=O)O)c(C5CCCC5)c4)ncnc3c2)C(C)(C)C)cc1` (racemic) [Compound 6, 2-cyclopentyl-4-[7-[7-oxo-7-[[rac-(1S)-2,2-dimethyl-1-[rac-(2S,4R)-4-hydroxy-2-[[4-(4-methylthiazol-5-yl)phenyl]methylcarbamoyl]pyrrolidine-1-carbonyl]propyl]amino]heptoxy]quinazolin-4-yl]benzoic acid] is 42%; for `Cc1ncsc1-c1ccc(CNC(=O)[C@@H]2C[C@@H](O)CN2C(=O)[C@@H](NC(=O)CCCCCCCCCCCOc2ccc3c(-c4ccc(C(=O)O)c(C5CCCC5)c4)ncnc3c2)C(C)(C)C)cc1` [Compound 1, 2-cyclopentyl-4-[7-[12-[[(1S)-1-[(2S,4R)-4-hydroxy-2-[[4-(4-methylthiazol-5-yl)phenyl]methylcarbamoyl]pyrrolidine-1-carbonyl]-2,2-dimethyl-propyl]amino]-12-oxo-dodecoxy]quinazolin-4-yl]benzoic acid] it is 43%.
As to `Cc1ncsc1-c1ccc(CNC(=O)[C@@H]2C[C@@H](O)CN2C(=O)[C@@H](NC(=O)CCCCCCCCOc2ccc3c(-c4ccc(C(=O)O)c(C5CCCC5)c4)ncnc3c2)C(C)(C)C)cc1` [Compound 4, 2-cyclopentyl-4-[7-[9-[[(1S)-1-[(2S,4R)-4-hydroxy-2-[[4-(4-methylthiazol-5-yl)phenyl]methylcarbamoyl]pyrrolidine-1-carbonyl]-2,2-dimethyl-propyl]amino]-9-oxo-nonoxy]quinazolin-4-yl]benzoic acid], the “(ePL) HEK293 24 h CAMKK2 Ymin(%)” value worked out at 19%.
The figure for `Cc1ncsc1-c1ccc(CNC(=O)[C@@H]2C[C@@H](O)CN2C(=O)[C@@H](NC(=O)CCCCCCCOc2ccc3c(-c4ccc(C(=O)O)c(C5CCCC5)c4)ncnc3c2)C(C)(C)C)cc1` [Compound 5] is 32%.

The values above are taken from patent US20250145607A1, “Modulators of CAMKK2 as Ligand Directed Degraders” (Celgene Corporation, priority 2021, published 2025).
